This is an account of results in ChEMBL document CHEMBL1158942, “Novel meroterpenoids from Cystoseira mediterranea: use of the crown-gall bioassay as a primary screen for lipophilic antineoplastic agents” (1991).

What is called inhibition is the drop in the measured response relative to a control, in per cent. Low values mean a weak effect, high ones a strong effect.

In the assay the test system is Agrobacterium tumefaciens. Kind of assay: Antitumor activity against Agrobacterium tumefaciens B6-induced crown gall tumor in potato tubers at 10000 uM after 15 to 20 days by crown gall tumor potato disk test. In kind it is functional.
As for `Cc1cc(O)cc2c1OC(C)(CC1=C3C[C@@H](O)C(C)(C)OC1C(C)(C)CCCC3=O)CC2` (stereo partly drawn) [CYSTOSEIROL], the inhibition at 10000 µM was 73%.

Compound `COc1cc(C)c(O)c(C/C=C(\C)CC(=O)CCCC(=O)C=C(C)C)c1` [MEDITERRANENONE] came in with an inhibition at 10000 µM of 76%.

In turn, `C/C(=C\Cc1cc(O)cc(C)c1O)CC(=O)C[C@@]1(C)CC2C(O)=CC(O)=C[C@]1(C)C2(C)C` [MEDITERRANEOL A] yielded an inhibition at 10000 µM of 88%.
